Measured values taken from patent US8778401B2, “Mesoporous material excipients for poorly aqueous soluble ingredients” (Agency for Science, Technology and Research, priority 2008, dated 2014).

Tests used:
Assay type in all cases: physicochemical
[1] = Dissolution test of ibuprofen formulations (USP dissolution tester, online UV); details: 900 mL 0.1N HCl at 37° C., 100 rpm
Procedure: The suspension was spray-dried in a Buchi Spray Drier B290. The inlet temperature was set to 81° C. and the outlet temperature was ˜50° C. The pump speed was set to “20”. […] Stirring speed is 100 rpm. Sample was taken by auto sampling system at interval of 5 min. UV reading was taken at wavelength 222 nm.
The dissolution profile was measured using VK7010 (Varian Co) USP dissolution tester with flow cell online UV-vis analysis system. Stirring rate is 100 rpm and vessel temperature is set at 37° C.
The dissolution is performed using the same method as in Example 1.

[2] = Dissolution of spray-dried indomethacin with SBA-15 in pH 6.8 phosphate buffer; details: 900 mL of pH 6.8 phosphate buffer
Procedure: FIG. 15 illustrates dissolution profiles of spray-dried indomethacin with SBA-15 in powder form and tablet form, and a comparison with raw indomethacin crystal. (900 mL of pH 6.8 phosphate buffer, 50 mg spray-dried indomethacin with SBA-15 in powder form or tablet with 800 mg cornstarch at 1 ton press, raw crystal form is 25 mg).

[3] = Storage stability of the amorphous form at 40° C./75% RH (XRD); details: same conditions (40° C./75% RH) for just one week
Procedure: The storage stability was tested in severe storage condition of 75% relative humidity and temperature of 40° C., denoted as 40° C./75% RH.
A broad peak at 2-θ of 15-30° is typical in diffraction patterns of X-ray amorphous silica.
The amorphous state of these drugs formed by spray drying with mesoporous materials is stable after being subject to stress conditions of 40° C./75% RH for at least six months.

CC(C)Cc1ccc(C(C)C(=O)O)cc1 (stereo not shown) [pure ibuprofen crystal, ibuprofen]
Dissolution test data 15 min ([1]; 25 mg ibuprofen or equivalent, 15 min): 17.5%
Dissolution test data 30 min ([1]; 25 mg ibuprofen or equivalent, 30 min): 25.6%
Dissolution test data 45 min ([1]; 25 mg ibuprofen or equivalent, 45 min): 35.6%
dissolved in 15 min ([1]; powder form, 15 min): 17.5%
dissolved within 15 min, tablet form ([1]; tablet with 0.8 g cornstarch, 1 ton press, 15 min): 16.4%

COc1ccc2c(c1)c(CC(=O)O)c(C)n2C(=O)c1ccc(Cl)cc1 [commercial indomethacin, indomethacin]
dissolution within 15 min [2]: 25%

COc1ccc2c(c1)c(CC(=O)O)c(C)n2C(=O)c1ccc(Cl)cc1 [indomethacin]
stability of amorphous form after storage [3]: re-crystallized
